Legend:
Type in all cases: functional
SR = experiment: Growth inhibition of human SR cells assessed as cell growth at 10^-8 M by sulforhodamine B assay; settings: read-out: Activity
HOP-62 [1] = experiment: Growth inhibition of human HOP62 cells assessed as cell growth at 10^-7 M by sulforhodamine B assay; settings: read-out: Activity
OVCAR-4 [2] = experiment: Growth inhibition of human OVCAR4 cells assessed as cell growth at 10^-4 M by sulforhodamine B assay; settings: read-out: Activity
T47D = experiment: Growth inhibition of human T47D cells assessed as cell growth at 10^-8 M by sulforhodamine B assay; settings: read-out: Activity
SNB-19 [3] = experiment: Growth inhibition of human SNB19 cells by sulforhodamine B assay
A498 [4] = experiment: Growth inhibition of human A498 cells assessed as cell growth at 10^-7 M by sulforhodamine B assay; settings: read-out: Activity
SF-295 [5] = experiment: Growth inhibition of human SF295 cells assessed as cell growth at 10^-7 M by sulforhodamine B assay; settings: read-out: Activity
NCI-H226 = experiment: Growth inhibition of human NCI-H226 cells assessed as cell growth at 10^-4 M by sulforhodamine B assay; settings: read-out: Activity
A498 [6] = experiment: Growth inhibition of human A498 cells by sulforhodamine B assay
[7] = Growth inhibition of human HCC2998 cells assessed as cell growth at 10^-8 M by sulforhodamine B assay; settings: HCC 2998, read-out: Activity
CAKI-1 = experiment: Growth inhibition of human CAKI-1 cells assessed as cell growth at 10^-8 M by sulforhodamine B assay; settings: read-out: Activity
MDA-MB-435 = experiment: Growth inhibition of human MDA-MB-435 cells assessed as cell growth at 10^-7 M by sulforhodamine B assay; settings: read-out: Activity
SNB-75 = experiment: Growth inhibition of human SNB75 cells assessed as cell growth at 10^-8 M by sulforhodamine B assay; settings: read-out: Activity
SNB-19 [8] = experiment: Growth inhibition of human SNB19 cells assessed as cell growth at 10^-7 M by sulforhodamine B assay; settings: read-out: Activity
COLO 205 = experiment: Growth inhibition of human COLO205 cells assessed as cell growth at 10^-8 M by sulforhodamine B assay; settings: read-out: Activity
SK-MEL-28 = experiment: Growth inhibition of human SK-MEL-28 cells assessed as cell growth at 10^-7 M by sulforhodamine B assay; settings: read-out: Activity
A549 = experiment: Growth inhibition of human A549/ATCC cells assessed as cell growth at 10^-4 M by sulforhodamine B assay; settings: read-out: Activity
SF-295 [9] = experiment: Growth inhibition of human SF295 cells assessed as cell growth at 10^-4 M by sulforhodamine B assay; settings: read-out: Activity
OVCAR-8 = experiment: Growth inhibition of human OVCAR8 cells assessed as cell growth at 10^-8 M by sulforhodamine B assay; settings: read-out: Activity
SW-620 = experiment: Growth inhibition of human SW620 cells assessed as cell growth at 10^-7 M by sulforhodamine B assay; settings: read-out: Activity
A498 [10] = experiment: Growth inhibition of human A498 cells assessed as cell growth at 10^-6 M by sulforhodamine B assay; settings: read-out: Activity
MDA-MB-468 = experiment: Growth inhibition of human MDA-MB-468 cells assessed as cell growth at 10^-6 M by sulforhodamine B assay; settings: read-out: Activity
SK-MEL-5 = experiment: Growth inhibition of human SK-MEL-5 cells assessed as cell growth at 10^-8 M by sulforhodamine B assay; settings: read-out: Activity
U-251 = experiment: Growth inhibition of human U251 cells assessed as cell growth at 10^-8 M by sulforhodamine B assay; settings: read-out: Activity
SF-268 [11] = experiment: Growth inhibition of human SF268 cells assessed as cell growth at 10^-6 M by sulforhodamine B assay; settings: read-out: Activity
MCF7 = experiment: Growth inhibition of human MCF7 cells by sulforhodamine B assay
SF-268 [12] = experiment: Growth inhibition of human SF268 cells by sulforhodamine B assay
RPMI-8226 = experiment: Growth inhibition of human RPMI8226 cells assessed as cell growth at 10^-4 M by sulforhodamine B assay; settings: read-out: Activity
DU-145 = experiment: Growth inhibition of human DU145 cells by sulforhodamine B assay
TK-10 [13] = experiment: Growth inhibition of human TK10 cells by sulforhodamine B assay
BT-549 = experiment: Growth inhibition of human BT549 cells by sulforhodamine B assay
NCI-H23 = experiment: Growth inhibition of human NCI-H23 cells by sulforhodamine B assay
[14] = Growth inhibition of human Hs 578T cells assessed as cell growth at 10^-4 M by sulforhodamine B assay; settings: read-out: Activity
HOP-62 [15] = experiment: Growth inhibition of human HOP62 cells assessed as cell growth at 10^-6 M by sulforhodamine B assay; settings: read-out: Activity
PC-3 = experiment: Growth inhibition of human PC3 cells assessed as cell growth at 10^-7 M by sulforhodamine B assay; settings: read-out: Activity
TK-10 [16] = experiment: Growth inhibition of human TK10 cells assessed as cell growth at 10^-6 M by sulforhodamine B assay; settings: read-out: Activity
TK-10 [17] = experiment: Growth inhibition of human TK10 cells assessed as cell growth at 10^-8 M by sulforhodamine B assay; settings: read-out: Activity
OVCAR-5 = experiment: Growth inhibition of human OVCAR5 cells assessed as cell growth at 10^-8 M by sulforhodamine B assay; settings: read-out: Activity
OVCAR-4 [18] = experiment: Growth inhibition of human OVCAR4 cells by sulforhodamine B assay
SF-539 = experiment: Growth inhibition of human SF539 cells assessed as cell growth at 10^-4 M by sulforhodamine B assay; settings: read-out: Activity
[19] = read-out: LC50 (the source's name)
[20] = read-out: pLC50 (the source's name) (converted)

With `C/C=C(/C)C(=O)O[C@@H]1CC(C)(C)C[C@H]2C3=CC[C@@H]4[C@@]5(C)CC[C@H](O)C(C)(C)[C@@H]5CC[C@@]4(C)[C@]3(C)CC[C@@]12C(=O)O` [Reduced Lantadene A] the growth at 0.01 µM (SR) was 83%, the growth at 0.1 µM (HOP-62 [1]) was 95% and the growth at 100 µM (OVCAR-4 [2]) was -21%. It also gave a growth at 0.01 µM (T47D) of 101%, a GI50 (SNB-19 [3]; read-out: GI50) of 1.65 µM and a TGI (SNB-19 [3]; read-out: TGI) of 3.37 µM. The GI50 (SNB-19 [3]; read-out: pGI50 (converted)) was 1.66 µM, the TGI (SNB-19 [3]; read-out: pTGI (converted)) was 3.39 µM and the growth at 0.1 µM (A498 [4]) was 77%. It also gave a growth at 0.1 µM (SF-295 [5]) of 90%, a growth at 100 µM (NCI-H226) of -73% and a GI50 (A498 [6]; read-out: GI50) of 1.54 µM. It also gave a CC50 (A498 [6]; [19]) of 7.38 µM, a TGI (A498 [6]; read-out: TGI) of 3.37 µM and a GI50 (A498 [6]; read-out: pGI50 (converted)) of 1.55 µM. It also gave a CC50 (A498 [6]; [20]) of 7.41 µM, a TGI (A498 [6]; read-out: pTGI (converted)) of 3.39 µM and a growth at 0.01 µM [7] of 99%. For the same molecule, the growth at 0.01 µM (CAKI-1) was 96%, the growth at 0.1 µM (MDA-MB-435) was 94% and the growth at 0.01 µM (SNB-75) was 78%. For the same molecule, the growth at 0.1 µM (SNB-19 [8]) was 90%, the growth at 0.01 µM (COLO 205) was 107% and the growth at 0.1 µM (SK-MEL-28) was 88%. The growth at 100 µM (A549) was -59%, the growth at 100 µM (SF-295 [9]) was -57% and the growth at 0.01 µM (OVCAR-8) was 98%. The growth at 0.1 µM (SW-620) was 95%, the growth at 1 µM (A498 [10]) was 78% and the growth at 1 µM (MDA-MB-468) was 84%. The growth at 0.01 µM (SK-MEL-5) was 95%, the growth at 0.01 µM (U-251) was 96% and the growth at 1 µM (SF-268 [11]) was 104%. The GI50 (MCF7; read-out: GI50) was 3.09 µM, the CC50 (MCF7; [19]) was > 100 µM and the TGI (MCF7; read-out: TGI) was 16.5 µM. The GI50 (MCF7; read-out: pGI50 (converted)) was 3.09 µM, the CC50 (MCF7; [20]) was > 100 µM and the TGI (MCF7; read-out: pTGI (converted)) was 16.6 µM. The GI50 (SF-268 [12]; read-out: GI50) was 2.16 µM, the TGI (SF-268 [12]; read-out: TGI) was 4.42 µM and the GI50 (SF-268 [12]; read-out: pGI50 (converted)) was 2.14 µM. It also gave a TGI (SF-268 [12]; read-out: pTGI (converted)) of 4.47 µM, a growth at 100 µM (RPMI-8226) of -15% and a GI50 (DU-145; read-out: GI50) of 2.12 µM. It also gave a TGI (DU-145; read-out: TGI) of 4.04 µM, a GI50 (DU-145; read-out: pGI50 (converted)) of 2.14 µM and a TGI (DU-145; read-out: pTGI (converted)) of 4.07 µM. For the same molecule, the GI50 (TK-10 [13]; read-out: GI50) was 2.25 µM, the CC50 (TK-10 [13]; [19]) was 9.55 µM and the TGI (TK-10 [13]; read-out: TGI) was 4.63 µM. It also gave a GI50 (TK-10 [13]; read-out: pGI50 (converted)) of 2.24 µM, a CC50 (TK-10 [13]; [20]) of 9.55 µM and a TGI (TK-10 [13]; read-out: pTGI (converted)) of 4.68 µM. The GI50 (BT-549; read-out: GI50) was 1.94 µM, the CC50 (BT-549; [19]) was 8.53 µM and the TGI (BT-549; read-out: TGI) was 4.06 µM. For the same molecule, the GI50 (BT-549; read-out: pGI50 (converted)) was 1.95 µM, the CC50 (BT-549; [20]) was 8.51 µM and the TGI (BT-549; read-out: pTGI (converted)) was 4.07 µM. For the same molecule, the GI50 (NCI-H23; read-out: GI50) was 2.39 µM, the CC50 (NCI-H23; [19]) was 91.2 µM and the TGI (NCI-H23; read-out: TGI) was 5.93 µM. The GI50 (NCI-H23; read-out: pGI50 (converted)) was 2.4 µM, the CC50 (NCI-H23; [20]) was 91.2 µM and the TGI (NCI-H23; read-out: pTGI (converted)) was 5.89 µM. The growth at 100 µM [14] was -38%, the growth at 1 µM (HOP-62 [15]) was 99% and the growth at 0.1 µM (PC-3) was 88%. The growth at 1 µM (TK-10 [16]) was 106%, the growth at 0.01 µM (TK-10 [17]) was 103% and the growth at 0.01 µM (OVCAR-5) was 100%. The GI50 (OVCAR-4 [18]; read-out: GI50) was 1.77 µM, the TGI (OVCAR-4 [18]; read-out: TGI) was 3.74 µM and the GI50 (OVCAR-4 [18]; read-out: pGI50 (converted)) was 1.78 µM. For the same molecule, the TGI (OVCAR-4 [18]; read-out: pTGI (converted)) was 3.72 µM and the growth at 100 µM (SF-539) was -68%.

Reference: ChEMBL document CHEMBL2413072, “Synthesis and in vitro anticancer studies of novel C-2 arylidene congeners of lantadenes” (2013)
